The text below walks through data of patent publication US10208030B2, “GPR119 agonist compounds” (Mankind Pharma Ltd., priority 2016, dated 2019).

Test [1] deals with Male SD rats. Put plainly: Oral glucose tolerance test in Sprague-Dawley rats. As to conditions: 3 mpk and 10 mpk oral. The class given is in vivo. How it is done:
(§1) Male SD rats (8-10 weeks) were grouped based on basal glucose levels and animals were fasted for 16 hours. Glucose level of each animal was estimated in blood collected from tail vein before animals were dosed orally with 0.5% Tween 80 and 0.5% NaCMC (vehicle control) and compounds at 3 and 10 mpk (n=5). After 30 minutes of compound dosing, blood glucose was again estimated and 2 g/kg/10 ml (20%) of Glucose solution was administered orally to all the animals. Blood glucose was estimated at 15, 30, 60, 90 and 120 minutes time points after glucose administration. Accu-Check active blood glucose meter was utilised for estimation of blood from tail vein.
Glucose reduction observed in animals treated with GPR119 agonists is represented in terms of % AUC reduction. A greater glucose reduction in oral glucose tolerance test indicates the compound's efficacy in this rodent species.

Test [2] has as its target T1, hGPR119 (Homo sapiens, UniProt Q8TDV5).
T1 construct: expressed in transfected cells; host or cells: CHO cells (CHO-hGPR119)
T1 sequence (Q8TDV5 1-335): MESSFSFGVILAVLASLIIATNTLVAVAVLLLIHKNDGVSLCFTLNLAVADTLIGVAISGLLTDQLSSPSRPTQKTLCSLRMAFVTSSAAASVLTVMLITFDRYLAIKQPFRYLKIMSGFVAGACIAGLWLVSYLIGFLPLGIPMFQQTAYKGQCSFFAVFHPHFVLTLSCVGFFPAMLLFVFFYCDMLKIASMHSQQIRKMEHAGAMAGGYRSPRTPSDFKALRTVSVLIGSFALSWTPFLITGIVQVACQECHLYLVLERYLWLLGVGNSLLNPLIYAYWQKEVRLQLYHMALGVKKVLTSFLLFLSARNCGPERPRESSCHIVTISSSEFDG
Description: In vitro cyclic AMP assay (Cisbio HTRF) in CHO-hGPR119 cells. Format: cell-based. The conditions noted are these: cAMP; for activation at 1 µM: 1 h, 60 min, read-out: Induction (% induction at 1 μM); for EC50: class symbols, legend not given. Summed up:
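Cells plated at 5000/well and exposed to test compound dose series for 60 min at room temperature with 1 mM IBMX and 0.5% DMSO (final). Lysis with anti-cAMP antibody/d2-cAMP detection reagents, 1 h at room temperature; HTRF read at 665/620 nm (337 nm excitation); EC50 from concentration-response.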

For test [3], the system named is Male C57BL/6 mice. Put plainly: Oral glucose tolerance test in C57BL/6 mice. Format: in vivo. The conditions noted are these: 3 mpk and 10 mpk oral. How it is done: as §1, with “C57BL/6 mice” for “SD rats”
Glucose reduction observed in animals treated with compounds of present invention is represented in terms of % AUC reduction. A greater glucose reduction in oral glucose tolerance test indicates the compound's efficacy in this rodent species.

Consider `CC(Oc1nn2cc(-c3ccc(S(C)(=O)=O)cc3F)nc2s1)C1CCN(c2ncc(Cl)cn2)CC1` (stereo in doubt) [Compound 1090, 2-((S)-1-(1-(5-chloropyrimidin-2-yl)piperidin-4-yl)ethoxy)-6-(2-fluoro-4-(methylsulfonyl)phenyl)imidazo[2,1-b][1,3,4]thiadiazole], for which the “glucose reduction (% AUC reduction) in oral glucose tolerance test” value (“glucose reduction (% AUC reduction)” below) in test [1] was “significant dose dependent glucose reduction”. In addition, in test [2], the activation at 1 µM was 76% and the EC50 entry was “A++”. Also, in test [3], the “glucose reduction (% AUC reduction)” value is on record as “significant dose dependent glucose reduction”.

Regarding `CNS(=O)(=O)c1ccc(-c2cn3nc(OC(C)C4CCN(c5nc(C(C)C)no5)CC4)sc3n2)c(F)c1` (stereo not drawn) [Compound 1109, 3-fluoro-4-(2-(1-(1-(3-isopropyl-1,2,4-oxadiazol-5-yl)piperidin-4-yl)ethoxy)imidazo[2,1-b][1,3,4]thiadiazol-6-yl)-N-methylbenzenesulfonamide], the “glucose reduction (% AUC reduction)” value in test [1] and in test [3] was “significant dose dependent glucose reduction” in each case. For the same compound, the activation at 1 µM in test [2] came to 55%.

As for `CCc1cnc(N2CCC([C@H](C)Oc3nn4cc(-c5ccc(S(C)(=O)=O)cc5F)nc4s3)CC2)nc1` [Compound 1086, 2-((S)-1-(1-(5-ethylpyrimidin-2-yl)piperidin-4-yl)ethoxy)-6-(2-fluoro-4-(methylsulfonyl)phenyl)imidazo[2,1-b][1,3,4]thiadiazole], the “glucose reduction (% AUC reduction)” value in test [1] and in test [3] was “significant dose dependent glucose reduction” each time. For the same compound, the activation at 1 µM in test [2] was determined as 87%. Further, the EC50 entry in test [2] is recorded as “A++”.

Take `CC(C)c1noc(N2CCC([C@H](C)Oc3nn4cc(-c5cnc(S(C)(=O)=O)nc5)nc4s3)CC2)n1` [Compound 1072, (S)-3-isopropyl-5-(4-(1-((6-(2-(methylsulfonyl)pyrimidin-5-yl)imidazo[2,1-b][1,3,4]thiadiazol-2-yl)oxy)ethyl)piperidin-1-yl)-1,2,4-oxadiazole]: the “glucose reduction (% AUC reduction)” value in test [1] is given as “significant dose dependent glucose reduction”. In addition, in test [2], the activation at 1 µM was 72% and the EC50 entry was “A++”. The “glucose reduction (% AUC reduction)” value in test [3] is “significant dose dependent glucose reduction”.

Turning to `CC(C)c1noc(N2CCC([C@@H](C)Oc3nn4cc(-c5ccncc5)nc4s3)CC2)n1` [Compound 1059, (R)-3-isopropyl-5-(4-(1-((6-(pyridin-4-yl)imidazo[2,1-b][1,3,4]thiadiazol-2-yl)oxy)ethyl)piperidin-1-yl)-1,2,4-oxadiazole], the “glucose reduction (% AUC reduction)” value in test [1] is listed as “significant dose dependent glucose reduction”. Moreover, in test [2], the activation at 1 µM came to 68% and the EC50 entry is reported as “A++”. Also, the “glucose reduction (% AUC reduction)” value in test [3] is recorded as “significant dose dependent glucose reduction”.

`CCCc1cnc(N2CCC([C@H](C)Oc3nn4cc(-c5ccc(S(C)(=O)=O)cc5)nc4s3)CC2)nc1` [Compound 1067, (S)-6-(4-(methylsulfonyl)phenyl)-2-(1-(1-(5-propylpyrimidin-2-yl)piperidin-4-yl)ethoxy)imidazo[2,1-b][1,3,4]thiadiazole]: the “glucose reduction (% AUC reduction)” value in test [1] is “significant dose dependent glucose reduction”. For the same compound, in test [2], the activation at 1 µM amounted to 55% and the EC50 entry was “A++”. Besides, in test [3], the “glucose reduction (% AUC reduction)” value is given as “significant dose dependent glucose reduction”.

In the case of `CC(C)c1noc(N2CCC([C@H](C)Oc3nn4cc(-c5cnc(Cl)nc5)nc4s3)CC2)n1` [Compound 1071, (S)-5-(4-(1-((6-(2-chloropyrimidin-5-yl)imidazo[2,1-b][1,3,4]thiadiazol-2-yl)oxy)ethyl)piperidin-1-yl)-3-isopropyl-1,2,4-oxadiazole], the “glucose reduction (% AUC reduction)” value in test [1] and in test [3] was “significant dose dependent glucose reduction” each time. The activation at 1 µM in test [2] was determined as 75%. In test [2], the EC50 result was “A++”.

In the case of `CC(C)OC(=O)N1CCC(C(C)Oc2nn3cc(-c4ccc(S(C)(=O)=O)cc4F)nc3s2)CC1` (stereo not drawn) [Compound 1101, Isopropyl 4-(1-(6-(2-fluoro-4-(methylsulfonyl)phenyl)imidazo[2,1-b][1,3,4]thiadiazol-2-yloxy)ethyl)piperidine-1-carboxylate], the “glucose reduction (% AUC reduction)” value in test [1] and in test [3] was “significant dose dependent glucose reduction” in each case. Besides, the activation at 1 µM in test [2] is 84%.

Turning to `CC(C)c1noc(N2CCC([C@@H](C)Oc3nn4cc(-c5cnc(Cl)cn5)nc4s3)CC2)n1` [Compound 1087, 2-((R)-1-(1-(3-isopropyl-1,2,4-oxadiazol-5-yl)piperidin-4-yl)ethoxy)-6-(5-chloropyrazin-2-yl)imidazo[2,1-b][1,3,4]thiadiazole], the “glucose reduction (% AUC reduction)” value in test [1] and in test [3] was “significant dose dependent glucose reduction” in each case. Moreover, the activation at 1 µM in test [2] was 75%.
